Patent US11591369B2, “Alpha(v)beta(6) integrin-binding peptides and methods of use thereof” (priority 2018, dated 2023)
Where “and” joins values, the source holds several entries; their conditions need not be identical. Equal values may be shown once. Read-outs that look alike come from different tables or passages of the source. Where a SMILES comes first, the peptide text is derived from it. Primed or numbered codes have the meaning given here. Where no end group is shown, it is not given here. [ ]: non-standard residue; d: D form. The star is where a group is joined. (18F)FB = [18F] fluorobenzoyl group, O=C(c1ccc([18F])cc1)*; (18F)FB″ = [18F]fluorobenzoyl, O=C(c1ccc([18F])cc1)*; PEG12′ = polyethylene glycol, 12 units; PEG28″ = polyethylene glycol, 28 units; Benzoyl(4-F) = O=C(c1ccc(F)cc1)*; FB = fluorobenzoyl

How the values were obtained:
[1] = 37° C., 1 hour, radio-HPLC
DX3puroβ6 (αvβ6+) cells = assay: [18F]-radiolabeled peptide cell binding and internalization, DX3puroβ6 (αvβ6+) cells; assay type: cell-based, human; details: for binding to DX3puroβ6 (αvβ6+) cells: % of total activity, 37° C.
αvβ6 integrin = target: T1, αvβ6 integrin (Homo sapiens, UniProt P06756+P18564); assay: Competitive binding ELISA against biotinylated LAP (BtLAP), αvβ6 integrin; details: for fold drop in affinity for αvβ6: compared to T1
T1 construct: All purified integrins were purchased from R&D Systems (MN, USA); purchased R&D Systems (MN, USA)
T1 sequence (P06756 31-992 limits assumed): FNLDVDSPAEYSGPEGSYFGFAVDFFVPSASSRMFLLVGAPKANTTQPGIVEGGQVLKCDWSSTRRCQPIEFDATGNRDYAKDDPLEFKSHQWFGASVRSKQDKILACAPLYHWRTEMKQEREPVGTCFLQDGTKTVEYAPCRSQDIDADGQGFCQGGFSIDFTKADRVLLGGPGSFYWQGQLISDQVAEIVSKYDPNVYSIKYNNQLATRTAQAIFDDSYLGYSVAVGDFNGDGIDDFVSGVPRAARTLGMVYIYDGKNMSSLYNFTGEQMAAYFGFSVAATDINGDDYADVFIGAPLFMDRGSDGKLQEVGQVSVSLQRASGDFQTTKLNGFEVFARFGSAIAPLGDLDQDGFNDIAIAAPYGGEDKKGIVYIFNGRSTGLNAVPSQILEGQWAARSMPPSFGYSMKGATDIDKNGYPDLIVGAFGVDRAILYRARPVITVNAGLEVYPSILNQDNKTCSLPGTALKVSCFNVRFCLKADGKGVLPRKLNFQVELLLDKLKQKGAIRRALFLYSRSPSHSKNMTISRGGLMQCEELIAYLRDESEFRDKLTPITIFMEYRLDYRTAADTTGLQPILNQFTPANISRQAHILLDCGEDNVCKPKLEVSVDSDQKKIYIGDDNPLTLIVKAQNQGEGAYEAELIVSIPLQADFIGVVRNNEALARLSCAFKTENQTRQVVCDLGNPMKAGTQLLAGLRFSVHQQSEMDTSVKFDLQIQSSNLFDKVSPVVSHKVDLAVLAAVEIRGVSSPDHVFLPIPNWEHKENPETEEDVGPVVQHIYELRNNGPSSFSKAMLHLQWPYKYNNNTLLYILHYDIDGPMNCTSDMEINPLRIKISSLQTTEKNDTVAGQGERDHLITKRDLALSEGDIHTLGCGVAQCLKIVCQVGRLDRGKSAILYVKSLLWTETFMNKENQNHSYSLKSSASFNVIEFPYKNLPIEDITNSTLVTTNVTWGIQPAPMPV
T1 sequence (P18564 22-707 limits assumed): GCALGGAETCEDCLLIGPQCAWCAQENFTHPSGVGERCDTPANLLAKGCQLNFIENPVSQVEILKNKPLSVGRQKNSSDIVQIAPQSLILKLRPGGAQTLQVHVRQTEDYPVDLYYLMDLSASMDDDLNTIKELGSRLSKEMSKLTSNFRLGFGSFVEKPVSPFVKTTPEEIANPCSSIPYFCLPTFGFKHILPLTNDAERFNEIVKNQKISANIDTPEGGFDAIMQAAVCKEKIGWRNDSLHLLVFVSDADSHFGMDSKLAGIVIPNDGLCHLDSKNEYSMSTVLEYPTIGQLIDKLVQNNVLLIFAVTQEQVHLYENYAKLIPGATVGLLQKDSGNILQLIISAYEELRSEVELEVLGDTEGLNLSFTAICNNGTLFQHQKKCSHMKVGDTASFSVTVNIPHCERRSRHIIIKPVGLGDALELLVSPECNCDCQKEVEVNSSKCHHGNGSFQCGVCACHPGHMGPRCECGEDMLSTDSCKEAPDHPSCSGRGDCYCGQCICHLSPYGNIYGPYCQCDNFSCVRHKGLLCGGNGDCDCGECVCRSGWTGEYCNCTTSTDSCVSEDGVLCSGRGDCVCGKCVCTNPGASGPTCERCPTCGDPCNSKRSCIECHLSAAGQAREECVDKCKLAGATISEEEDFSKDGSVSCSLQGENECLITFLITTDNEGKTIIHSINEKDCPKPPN

[2] = Circular dichroism (CD) spectroscopy; assay type: physicochemical; details: for % Helical Content CD Buffer: 25 mM phosphate + 100 mM NaF; for % Helical Content CD Buffer + 30% TFE: buffer with 30% trifluoroethanol

| Compound | percent internalized relative to the amount bound to DX3puroβ6 (αvβ6+) cells (DX3puroβ6 (αvβ6+) cells; 1 hour) | binding to DX3puroβ6 (αvβ6+) cells (DX3puroβ6 (αvβ6+) cells; 1 hour) | % Helical Content CD Buffer [2] | % Helical Content CD Buffer + 30% TFE [2] | other results |
| --- | --- | --- | --- | --- | --- |
| CC(C)C[C@H](NC(=O)[C@H](Cc1ccc(O)cc1)NC(=O)[C@@H](NC(=O)[C@H](CC(C)C)NC(=O)[C@H](CC(=O)O)NC(=O)CNC(=O)[C@@H](NC(=O)CCOCCOCCOCCOCCOCCOCCOCCOCCOCCOCCOCCOCCOCCOCCOCCOCCOCCOCCOCCOCCOCCOCCOCCOCCOCCOCCOCCOCCNC(=O)c1ccc(F)cc1)C(C)C)[C@@H](C)O)C(=O)N[C@@H](CCCCN)C(=O)N[C@@H](CCC(N)=O)C(=O)N[C@@H](CCCCN)C(=O)N[C@H](C(=O)N[C@@H](C)C(=O)N[C@@H](CCCNC(=N)N)C(=O)N[C@H](C(=O)NCCOCCOCCOCCOCCOCCOCCOCCOCCOCCOCCOCCOCCOCCOCCOCCOCCOCCOCCOCCOCCOCCOCCOCCOCCOCCOCCOCCOCCC(N)=O)[C@@H](C)O)C(C)C [N-[^18F]T1-e] | 25.7±2.2% and 25.7±2.7% | 1.5±0.1% |  |  | intact peptide in mouse serum [1]: > 99%; intact peptide in mouse serum ([1]; 60 min): 100% |
| CC(C)C[C@H](NC(=O)[C@H](Cc1ccc(O)cc1)NC(=O)[C@@H](NC(=O)[C@H](CC(C)C)NC(=O)[C@H](CC(=O)O)NC(=O)CNC(=O)[C@@H](NC(=O)c1ccc(CNC(=O)CCOCCOCCOCCOCCOCCOCCOCCOCCOCCOCCOCCOCCOCCOCCOCCOCCOCCOCCOCCOCCOCCOCCOCCOCCOCCOCCOCCOCCNC(=O)c2ccc(F)cc2)cc1)C(C)C)[C@@H](C)O)C(=O)N[C@@H](CCCCN)C(=O)N[C@@H](CCC(N)=O)C(=O)N[C@@H](CCCCN)C(=O)N[C@H](C(=O)N[C@@H](C)C(=O)N[C@@H](CCCNC(=N)N)C(=O)N[C@H](C(=O)NCCOCCOCCOCCOCCOCCOCCOCCOCCOCCOCCOCCOCCOCCOCCOCCOCCOCCOCCOCCOCCOCCOCCOCCOCCOCCOCCOCCOCCC(N)=O)[C@@H](C)O)C(C)C [T1-g] |  |  |  |  | fold higher binding to αvβ6-integrin (αvβ6 integrin; ELISA, compared to T1-e): 2 fold |
| [^18F]FB-VGDLTYLKQKVART ({(18F)FB″}-VGDLTYLKQKVART) [N-[^18F]P1Q] | 10.2±1.2% | 5.6±0.2% and 2.1±0.2% and 5.6% |  |  |  |
| [^18F]FB-VGDLTYLKRKATVQ ({(18F)FB″}-VGDLTYLKRKATVQ) [N-[^18F]P1Q-Scrb] |  | 2.1±0.2% |  |  | DX3puroβ6 (αvβ6+)/DX3puro (αvβ6−) selectivity ratio (DX3puroβ6 (αvβ6+) cells): 1.7±0.06 :1 |
| [^18F]FB-VGDLTYLKKKVART ({(18F)FB″}-VGDLTYLKKKVART) [N-[^18F]P1K-b] |  | 7.9±0.7% |  |  |  |
| [^18F]FB-RGDLADLRQKVART ({(18F)FB″}-RGDLADLRQKVART) [N-[^18F]P3Q] | 12.4±3.6% | 20±0.4% and 20±0.2% and 20% |  |  | intact peptide in mouse serum [1]: 16% |
| [^18F]FB-PEG12-VGDLTYLKQKVART-PEG28 ({(18F)FB″-PEG12′}-VGDLTYLKQKVART[PEG28″]) [N-[^18F]T1-d] | 32±13% |  |  |  | intact peptide in mouse serum [1]: 82% |
| CC(C)C[C@H](NC(=O)[C@H](CC(=O)O)NC(=O)CNC(=O)[C@H](CCCNC(=N)N)NC(=O)CNC(=O)c1ccc(F)cc1)C(=O)NCC(=O)N[C@@H](CCCNC(=N)N)C(=O)N[C@@H](CC(C)C)C(=O)N[C@@H](C)C(=O)N[C@@H](CCC(N)=O)C(=O)N[C@@H](CCCCN)C(=O)N[C@H](C(=O)N[C@@H](C)C(=O)N[C@@H](CCCNC(=N)N)C(=O)N[C@H](C(N)=O)[C@@H](C)O)C(C)C [SFLAP3-15mer] ({Benzoyl(4-F)}-GRGDLGRLAQKVART-NH2) |  |  | 13.4% | 31.6% | IC50 (αvβ6 integrin): 1.3 ± 0.2 nM; DX3puroβ6 (αvβ6+)/DX3puro (αvβ6−) selectivity ratio (DX3puroβ6 (αvβ6+) cells; cell binding, 1 hour): 3.9 ± 0.4:1 |
| [^18F]FB-RSDLTPLF ({(18F)FB}-RSDLTPLF) [N-[^18F]KL3] | 23.5±4.7% | 0.7±0.2% |  |  |  |
| CC(C)C[C@H](NC(=O)[C@H](Cc1ccc(O)cc1)NC(=O)[C@@H](NC(=O)[C@H](CC(C)C)NC(=O)[C@H](CC(=O)O)NC(=O)CNC(=O)[C@@H](NC(=O)COCCOCCNC(=O)c1ccc(F)cc1)C(C)C)[C@@H](C)O)C(=O)N[C@@H](CCCCN)C(=O)N[C@@H](CCC(N)=O)C(=O)N[C@@H](CCCCN)C(=O)N[C@H](C(=O)N[C@@H](C)C(=O)N[C@@H](CCCNC(=N)N)C(=O)N[C@H](C(=O)NCCOCCOCCOCCOCCOCCOCCOCCOCCOCCOCCOCCOCCOCCOCCOCCOCCOCCOCCOCCOCCOCCOCCOCCOCCOCCOCCOCCOCCC(N)=O)[C@@H](C)O)C(C)C [T1-a] |  |  |  |  | fold drop in affinity for αvβ6 (αvβ6 integrin): 24 fold |
| FB-RGDLQVLA ({FB}-RGDLQVLA) [A20-8mer, reference compound] |  |  | 6.7% | 6.9% | DX3puroβ6 (αvβ6+)/DX3puro (αvβ6−) selectivity ratio (DX3puroβ6 (αvβ6+) cells; cell binding, 1 hour): 7.8±0.5 :1 |
| CC(C)C[C@H](NC(=O)[C@H](Cc1ccc(O)cc1)NC(=O)[C@@H](NC(=O)[C@H](CC(C)C)NC(=O)[C@H](CC(=O)O)NC(=O)CNC(=O)[C@@H](NC(=O)CCOCCOCCOCCOCCNC(=O)c1ccc(F)cc1)C(C)C)[C@@H](C)O)C(=O)N[C@@H](CCCCN)C(=O)N[C@@H](CCC(N)=O)C(=O)N[C@@H](CCCCN)C(=O)N[C@H](C(=O)N[C@@H](C)C(=O)N[C@@H](CCCNC(=N)N)C(=O)N[C@H](C(=O)NCCOCCOCCOCCOCCOCCOCCOCCOCCOCCOCCOCCOCCOCCOCCOCCOCCOCCOCCOCCOCCOCCOCCOCCOCCOCCOCCOCCOCCC(N)=O)[C@@H](C)O)C(C)C [T1-b] |  |  |  |  | fold drop in affinity for αvβ6 (αvβ6 integrin): 13 fold |
| FB-RGDLQVLAQKVART [A20-14mer, reference compound] |  |  | 15.1% | 35.7% | DX3puroβ6 (αvβ6+)/DX3puro (αvβ6−) selectivity ratio (DX3puroβ6 (αvβ6+) cells; cell binding, 1 hour): 8.4±0.4 :1 |
| CC(C)C[C@H](NC(=O)[C@H](CO)NC(=O)[C@H](CC(=O)O)NC(=O)[C@H](CC(C)C)NC(=O)[C@H](CC(=O)O)NC(=O)[C@@H](NC(=O)[C@H](CCCNC(=N)N)NC(=O)c1ccc(F)cc1)[C@@H](C)O)C(=O)N[C@@H](CCCNC(=N)N)C(=O)N[C@H](C(N)=O)[C@@H](C)O [RTD-9mer, reference compound] |  |  | 2.7% | 2.1% | IC50 (αvβ6 integrin): 22 ± 3 nM; DX3puroβ6 (αvβ6+)/DX3puro (αvβ6−) selectivity ratio (DX3puroβ6 (αvβ6+) cells; cell binding, 1 hour): 1.7±0.2 :1 |
| CC(C)C[C@H](NC(=O)[C@H](Cc1ccc(O)cc1)NC(=O)[C@@H](NC(=O)[C@H](CC(C)C)NC(=O)[C@H](CC(=O)O)NC(=O)CNC(=O)[C@@H](NC(=O)CCOCCOCCOCCOCCOCCOCCOCCOCCNC(=O)c1ccc(F)cc1)C(C)C)[C@@H](C)O)C(=O)N[C@@H](CCCCN)C(=O)N[C@@H](CCC(N)=O)C(=O)N[C@@H](CCCCN)C(=O)N[C@H](C(=O)N[C@@H](C)C(=O)N[C@@H](CCCNC(=N)N)C(=O)N[C@H](C(=O)NCCOCCOCCOCCOCCOCCOCCOCCOCCOCCOCCOCCOCCOCCOCCOCCOCCOCCOCCOCCOCCOCCOCCOCCOCCOCCOCCOCCOCCC(N)=O)[C@@H](C)O)C(C)C [T1-c] |  |  |  |  | fold drop in affinity for αvβ6 (αvβ6 integrin): 50 fold |
| CC(C)C[C@H](NC(=O)[C@H](Cc1ccc(O)cc1)NC(=O)[C@@H](NC(=O)[C@H](CC(C)C)NC(=O)[C@H](CC(=O)O)NC(=O)CNC(=O)[C@@H](NC(=O)CCOCCOCCOCCOCCOCCOCCOCCOCCOCCOCCOCCOCCOCCOCCOCCOCCOCCOCCOCCOCCOCCOCCOCCOCCOCCOCCOCCOCCNC(=O)c1ccc(F)cc1)C(C)C)[C@@H](C)O)C(=O)N[C@@H](CCCCN)C(=O)N[C@@H](CCC(N)=O)C(=O)N[C@@H](CCCCN)C(=O)N[C@H](C(=O)N[C@@H](C)C(=O)N[C@@H](CCCNC(=N)N)C(=O)N[C@H](C(=O)NCCOCCOCCOCCOCCOCCOCCOCCOCCOCCOCCOCCOCCOCCOCCOCCOCCOCCOCCOCCOCCOCCOCCOCCOCCOCCOCCOCCOCCC(N)=O)[C@@H](C)O)C(C)C [T1-e] |  |  |  |  | fold drop in affinity for αvβ6 (αvβ6 integrin): 39 fold |
| CC(C)C[C@H](NC(=O)[C@H](Cc1ccc(O)cc1)NC(=O)[C@@H](NC(=O)[C@H](CC(C)C)NC(=O)[C@H](CC(=O)O)NC(=O)CNC(=O)[C@@H](NC(=O)CCOCCOCCOCCOCCOCCOCCOCCOCCOCCOCCOCCOCCNC(=O)c1ccc(F)cc1)C(C)C)[C@@H](C)O)C(=O)N[C@@H](CCCCN)C(=O)N[C@@H](CCC(N)=O)C(=O)N[C@@H](CCCCN)C(=O)N[C@H](C(=O)N[C@@H](C)C(=O)N[C@@H](CCCNC(=N)N)C(=O)N[C@H](C(=O)NCCOCCOCCOCCOCCOCCOCCOCCOCCOCCOCCOCCOCCOCCOCCOCCOCCOCCOCCOCCOCCOCCOCCOCCOCCOCCOCCOCCOCCC(N)=O)[C@@H](C)O)C(C)C [T1-d] |  |  |  |  | fold drop in affinity for αvβ6 (αvβ6 integrin): 9 fold |
| CC(C)C[C@H](NC(=O)[C@H](CCCNC(=N)N)NC(=O)CNC(=O)[C@H](CC(C)C)NC(=O)[C@H](CC(=O)O)NC(=O)CNC(=O)[C@H](CCCNC(=N)N)NC(=O)CNC(=O)c1ccc(F)cc1)C(N)=O [SFLAP3-8mer, reference compound] ({Benzoyl(4-F)}-GRGDLGRL-NH2) |  |  | 11% | 6.2% | IC50 (αvβ6 integrin): 89 ± 6.5 nM; DX3puroβ6 (αvβ6+)/DX3puro (αvβ6−) selectivity ratio (DX3puroβ6 (αvβ6+) cells; cell binding, 1 hour): 1.4 ± 0.2:1 |
| [^18F]FB-RSDLTPLFQKVART ({(18F)FB″}-RSDLTPLFQKVART) [N-[^18F]KL3Q] | 22.8±1.3% | 1.3±0.1% |  |  | fold increase in cell binding (DX3puroβ6 (αvβ6+) cells; compared to N-[18F]KL3): 2 fold |
| CC(C)C[C@H](NC(=O)[C@H](CO)NC(=O)[C@H](CC(=O)O)NC(=O)[C@H](CC(C)C)NC(=O)[C@H](CC(=O)O)NC(=O)[C@@H](NC(=O)[C@H](CCCNC(=N)N)NC(=O)c1ccc(F)cc1)[C@@H](C)O)C(=O)N[C@@H](CCCNC(=N)N)C(=O)N[C@@H](CCC(N)=O)C(=O)N[C@@H](CCCCN)C(=O)N[C@H](C(=O)N[C@@H](C)C(=O)N[C@@H](CCCNC(=N)N)C(=O)N[C@H](C(N)=O)[C@@H](C)O)C(C)C [RTD-14mer] ({Benzoyl(4-F)}-RTDLDSLRQKVART-NH2) |  |  | 18.1% | 26.2% | IC50 (αvβ6 integrin): 0.4 ± 0.1 nM; DX3puroβ6 (αvβ6+)/DX3puro (αvβ6−) selectivity ratio (DX3puroβ6 (αvβ6+) cells): 9.1±0.8 :1 |
